Experimental data reported in publication PMC10054362, “Anti–Zika Virus Activity and Isolation of Flavonoids from Ethanol Extracts of Curatella americana L. Leaves” (Molecules, 2023).
Values after ≈ are worked out from the molar mass of the structure shown. Values joined by “and” are separate entries in the source; they are usually repeats but may differ in a detail not shown here. Identical values can stand only once. Like-named read-outs stand apart in the source and are kept apart here.

Experiments:
[1] = Cytotoxicity evaluation by MTT assay in Vero cells; assay type: cell-based, African green monkey; details: African green monkey
Protocol: (§1) The cytotoxicity of ethanolic extracts of stems, leaves, fractions, and substances isolated from the C. americana species was evaluated by the colorimetric MTT method in Vero cell lines (derived from African green monkey kidneys) and MRC-5 (derived from normal human lung tissue).
(§2) Cell suspensions (Vero and MRC-5) were distributed in 96-well microplates containing 6.0 × 10^4 cells/well. The plates were incubated in a humidified 5% CO2 atmosphere at 37 °C for 24 h. Samples solubilized in dimethyl sulfoxide (DMSO) were diluted in culture medium supplemented with 1% SFB [48, 49]. Substance dilutions ranged from 800 to 0.125 µg/mL. After the formation of the cell monolayer on the surface of the wells, the culture medium was removed, and 100 μL of diluted sample solutions along with 100 μL of 1% SFB-enriched culture medium were added, and the plates were incubated under the same atmospheric condition. Seventy-two hours after the addition of samples, the culture medium was removed, and 28.0 μL of MTT solution (2.0 mg/mL in PBS) was added to each well, and the plates were incubated again for 120 min. At the end of this period, 132 μL of DMSO was added to all wells, and the plates were shaken on a plate shaker for 15 min to dissolve the formed formazan. Formazan quantification obtained by reducing tetrazolium salt in viable cells was performed on a Victor^TM X3 microplate reader® (PerkinElmer, Waltham, MA, USA) using the WorkOut 2.5 software at 490 nm. Cell multiplication was compared with cell control. Cell toxicity was expressed in terms of 50% cytotoxic concentration (CC50). The cytotoxic percentage was calculated as [(A-B)/A] × 100, where A and B are the optical densities at 490 nm (OD490) from the wells where untreated (A) and treated (B) cells are present, respectively.
(§3) Data from cytotoxicity and antiviral assays were evaluated according to their means and standard deviations. […] These analyses were performed using the GraphPad Prism 5.04 statistical package® (GraphPad Software, Boston, MA, USA).

Zika virus [2] = test: Screening for anti-Zika virus activity by MTT colorimetric technique in infected Vero cells; assay type: cell-based; details: for EC50: ZIKV-infected Vero cells, MTT; for SI Vero: ratio of CC50 (Vero) to EC50
Protocol: After the determination of optimal noncytotoxic use concentrations, assays were performed, treating ZIKV-infected Vero cells with eight concentrations from the noncytotoxic concentrations for each sample. The results of the 50% effective concentration (EC50—concentration of the substance capable of reducing the viral cytopathic effect by 50%) and selectivity index (SI) are described in Table 2.
It was performed according to the methodology described by Brandão et al.. Sample stock solutions were prepared in DMSO (dimethyl sulfoxide) and evaluated at noncytotoxic concentrations. Vero cell monolayers were cultured in 96-well plates (6 × 10^4 cells per well). After 24 h of incubation in 5% CO2 at 37 °C, the culture medium (DMEM 5% SFB) was removed, and 100.0 μL of sample dilutions were added to each well along with 100.0 μL of the viral suspension. Then, the cultures were incubated in a humid atmosphere containing 5% CO2 at 37 °C for 72 h. Cell viability was assessed by the MTT colorimetric technique. The supernatant was removed, and then 28.0 μL of an MTT solution (2.0 mg/mL in PBS) was added to each well. The plates were incubated for 2 h at 37 °C, and after this incubation time, 132.0 μL DMSO was added to each well to dissolve the formazan crystals. The plates were stirred for 15 min (Shaker New Brunswick Scientific C24), and the optical density was determined at 490 nm (OD490) in a microplate reader.
The effective concentration that has 50% antiviral effect, or 50% effective concentration (EC50), is expressed as the concentration that promotes the protection of 50% of treated cells from destruction caused by the virus. The percentage of protection was calculated as [(AB)/CB)] × 100, where A, B, and C are the OD490 of the wells, in which are present treated and infected (A), untreated and infected (B), and untreated and non-infected cells (C), respectively.
Data from cytotoxicity and antiviral assays were evaluated according to their means and standard deviations. The cytotoxic concentration at 50% and the effective concentration at 50% were determined compared with the control obtained from nonlinear regression. These analyses were performed using the GraphPad Prism 5.04 statistical package® (GraphPad Software, Boston, MA, USA).

Zika virus [3] = test: In vitro cytopathic effect inhibition assay in ZIKV-infected Vero cell monolayer; assay type: cell-based; details: Vero cells, MOI = 1, treated after infection, quercetin 20 µg/mL, leaf extract 85 µg/mL, photographed after 48 h
Protocol: This can be seen by the destruction and morphological alterations of the cells, such as rounding of cells, formation of lumps, and changes in cell refringence, especially when compared with the uninfected and untreated cell monolayer (Figure 4A).
Figure 4 Antiviral effect against Zika virus in Vero cells treated with ethanol extract of leaves and quercetin. Vero cells were infected with ZIKV, treated with ethanol extract of leaves/quercetin, and photographed after 48 h of infection. (A) Uninfected and untreated cells, (B) infected cells, (C) cells uninfected and treated with ethanol extract of leaves (85 µg/mL), (D) cells infected and treated with ethanol extract of leaves (85 µg/mL), (E) cells uninfected and treated with quercetin (20 µg/mL), (F) cells infected and treated with quercetin (20 µg/mL). Magnification, 100x.
In order to confirm the anti-ZIKV activity observed in the antiviral MTT assay, the Vero cell monolayer (9.5 × 10^6 cells per well) was infected by viral suspensions with titers of 1.0 × 10^7 TCID50/mL, (MOI = 1), Zika virus, during 1 h for the viral adsorption. Afterwards, the viral suspension was removed and the wells were washed with PBS. Then, the wells were treated with the active concentration of the compound (20 μg/mL) and ethanolic extract of leaves of C. americana (85 μg/mL). […]

[4] = Cytotoxicity evaluation by MTT assay in MRC-5 cells; assay type: cell-based, human; details: human
Protocol: as §1, with “tissue). The results of CC50 are described in Table 2.” for “tissue).”
as §2
(§4) Data from cytotoxicity and antiviral assays were evaluated according to their means and standard deviations. The cytotoxic concentration at 50% and the effective concentration at 50% were determined compared with the control obtained from nonlinear regression. […]

Vero cells = test: Cytotoxicity evaluation by MTT assay in Vero cells; assay type: cell-based, African green monkey; details: MTT, 72 h, n = 3
Protocol: as §1, §2, §3

MRC-5 cells = test: Cytotoxicity evaluation by MTT assay in MRC-5 cells; assay type: cell-based, human; details: MTT, 72 h, n = 3
Protocol: as §1, with “tissue). The results of CC50 are described in Table 2.” for “tissue).”
as §2, §4

[5] = Zika virus, 72 h, n = 3, read-out: EC50 (converted)

For `O=c1c(O)c(-c2ccc(O)c(O)c2)oc2cc(O)cc(O)c12` [Quercetin], the CC50 at 72 h ([1]; MTT, 72 h, n = 3, read-out: CC50 Vero (converted)) was 71.3 µg/mL and 236 µM, the EC50 (Zika virus [2]; [5]) was 18.6 µg/mL and 61.6 µM and the EC50 (Zika virus [2]; Zika virus, read-out: EC50, inhibition of the viral cytopathic effect (abstract, unit inferred)) was 18.6 ± 2.8 µg/mL (≈ 61.5 µM). For the same compound, the “SI Vero” value (Zika virus [2]) was 3.8 and the “protection of ZIKV-infected cell monolayer from viral cytopathic effect” value (Zika virus [3]) was “protect the cells from a virus infection”.

For `NC(=O)c1ncn([C@@H]2O[C@H](CO)[C@@H](O)[C@H]2O)n1` [Ribavirin, reference compound], the CC50 at 72 h ([1]; Vero cells, MTT, 72 h, n = 3, read-out: CC50 Vero (converted)) was 370.4 ± 1.2 µg/mL (≈ 1520 µM) and the EC50 (Zika virus [2]; [5]) was 94.5 µg/mL and 387 µM.

In the case of `O=c1c(O[C@@H]2O[C@H](CO)[C@@H](O)[C@H](O)[C@H]2O)c(-c2ccc(O)c(O)c2)oc2cc(O)cc(O)c12` [Quercetin-3-O-glucoside], the CC50 at 72 h [1] is reported as > 100 µg/mL and > 216 µM, the CC50 at 72 h [4] is reported as > 100 µg/mL and > 216 µM and the EC50 (Zika virus [2]; 72 h, n = 3) is reported as “Inactive”. For the same compound, the EC50 (Zika virus [2]; [5]) was greater than 100 µg/mL.

With Quercetin-3-O-hexosylgallate the CC50 (Vero cells) was 496 µM, the “CC50 Vero” value (Vero cells) was 305.6 ± 1.4 µg/mL and the CC50 (MRC-5 cells) was greater than 162 µM. For the same compound, the “CC50 MRC-5” value (MRC-5 cells) was greater than 100 µg/mL, the “SI MRC-5” value (Zika virus [2]; ratio of CC50 (MRC-5) to EC50) was greater than 0.7 and the “SI Vero” value (Zika virus [2]) was 2.0.
